Results published in patent US20250127743A1, “USE OF BRANCHED CHAIN FATTY ACIDS (BCFAS) FOR THE TREATMENT OF INTESTINAL INFLAMMATION” (priority 2021, published 2025).

Tests used:
[1] = pH and acid/base forms of BCFA in HBSS medium; assay type: physicochemical; settings: 5 mM added to HBSS medium
Method: (§1) Before treatments, cell culture medium was replaced by HBSS (Hanks' Balanced Salt Solution; Sigma). Cells were then treated as indicated in the text and directly lysed with Laemmli buffer. For BCFAs and SCFAs treatments, 100 mM stock solutions in water were first prepared from the corresponding acidic form (e.g. isobutyric acid) or from the sodium salt of the corresponding basic form (e.g. sodium isobutyrate) and then further diluted in cell culture media (HBSS). When needed, the pH of cell culture medium was set using either 0.1 M NaOH or 0.1 M HCl solution. […] For TNFα treatments, CACO2 cells were first incubated with BCFAs or SCFAs for 1 hour and then incubated with 100 ng/mL recombinant human TNFα (PeproTech). For immunoblotting and qRT-PCR analyses, cells were lysed after 30 min or 1h of incubation with TNFα, respectively. For Transepithelial electrical resistance (TEER) measurements, cells were incubated for 24 h with TNFα. Viability of cells incubated with HBSS at various pH or with BCFAs was assessed using the CellTiter-Glo® luminescent cell viability assay (Promega), according to the manufacturer's protocol.
BCFAs are weak organic acids, which exist in solution either as acidic (R—COOH) or basic (R—COO^−) forms.

CACO2 cells [2] = assay: Luminol-based ROS detection assay in CACO2 cells; assay type: cell-based
Method: Luminol was dissolved in NaOH 0.1 M to obtain a 50 mM stock solution. A stock solution of 1000 U/mL HRP (HorseRadish Peroxidase) was prepared in parallel in PBS (Phosphate-Buffered Saline). After treatment with BCFAs or SCFAs or incubation in HBSS at pH 5.2, CACO2 and HeLa culture media were collected and centrifugated for 5 min at 13,000×g at room temperature. The pH of these culture media was then buffered to 7.5 to avoid pH-dependent interferences with luminol activity. Luminol (1 mM final concentration) and HRP (4 U/mL) were finally added to each culture media and luminescence was quantified immediately on a luminometer (Tecan).

IκBα = assay: Immunoblot of IκBα levels in TNFα-stimulated CACO2 cells; assay type: cell-based; settings: 1 hour pre-incubation with 5 mM, then 30 min 100 ng/mL TNFα
Method: as §1
(§2) Cell lysates and protein extracts from intestinal tissues in Laemmli buffer were boiled for 5 min, sonicated and protein content was resolved using SDS-polyacrylamide gel electrophoresis. Proteins were then transferred on PVDF membranes (GE Healthcare) and detected after incubation with specific antibodies using ECL Clarity Western blotting Substrate (BioRad). […] Quantifications of proteins were performed on a ChemiDoc Imaging System (Bio-rad). SUMO2/3-conjugated proteins levels (above 50 kDa), SUMO1-conjugated protein levels (above 50 kDa), and other specific protein levels were normalized either by the level of total proteins above 50 kDa (determined using the TGX-stain free imaging technology; Bio-rad) or by the level of actin in each lysate.

DSS-treated mice [3] = assay: Fecal calprotectin in DSS mouse model of colitis; assay type: in vivo; settings: 2% DSS in drinking water 7 days, 150 mM in drinking water, 3 days after the end of DSS
Method: Eight-weeks-old C57Bl/6JRj male mice (Janvier Labs, Le-Genest-Saint-Isle, France) were housed at 23° C. (5 animals/cage) with a 12-h light-dark cycle in regular open cages. All animals were fed with a non-sterilized standard rodent diet (3430.PM.S10, Serlab, France). Drinking water was not sterilized. Animals were acclimatized to the animal facility for 1 week before experimentations. To monitor the effect of BCFAs on chemically-induced intestinal inflammation, animals were split in three groups (8 animals/group): one group had no treatment, one group was treated with DSS (Dextran Sulfate Sodium, MB Biomedicals, France; 2% in drinking water) from D4 to D11 to induce colitis and one group was treated both with sodium isobutyrate (150 mM in drinking water, pH 7.4; from DO to D13) and DSS (D4 to D11). Fecal pellets were weighted and resuspended in 600 μL of PBS with 1% protease and phosphatase inhibitors (Sigma-Aldrich, USA). After a centrifugation step (12000×g, 15 min, 4° C.), calprotectin was quantified in the obtained supernatants using the S100A8 DuoSet® kit (R&D Systems, Minneapolis), according to the manufacturer's protocol.

DSS-treated mice [4] = assay: Colonic permeability (Lucifer yellow flux, Ussing chambers) in DSS mouse model of colitis; assay type: in vivo; settings: 2% DSS in drinking water 7 days, 150 mM in drinking water, three days after the end of DSS
Method: Eight-weeks-old C57Bl/6JRj male mice (Janvier Labs, Le-Genest-Saint-Isle, France) were housed at 23° C. (5 animals/cage) with a 12-h light-dark cycle in regular open cages. All animals were fed with a non-sterilized standard rodent diet (3430.PM.S10, Serlab, France). Drinking water was not sterilized. Animals were acclimatized to the animal facility for 1 week before experimentations. To monitor the effect of BCFAs on chemically-induced intestinal inflammation, animals were split in three groups (8 animals/group): one group had no treatment, one group was treated with DSS (Dextran Sulfate Sodium, MB Biomedicals, France; 2% in drinking water) from D4 to D11 to induce colitis and one group was treated both with sodium isobutyrate (150 mM in drinking water, pH 7.4; from DO to D13) and DSS (D4 to D11). Colon samples were cut along the mesenteric border. Colonic permeability was assessed by measuring Lucifer yellow (440 Da; Sigma-aldrich) fluxes in Ussing chambers with an exchange surface of 0.07 cm2 (Harvard Apparatus, Holliston, MA). Lucifer yellow (250 μg/ml) was added to the mucosal side. After 3 h at 37° C., medium from the serosal side was removed and the fluorescence level of Lucifer yellow (excitation: 428 nm; emission: 540 nm) was quantified.

[5] = system: proteins conjugated to SUMO2/3 in CACO2 cells; assay: Immunoblot quantification of SUMO2/3-conjugated proteins (above 50 kDa) in CACO2 cells; assay type: cell-based; settings: CACO2 cells; for SUMOylation pattern: pH~7.5, 5 mM final concentration
Method: (§3) CACO2 and HeLa cells were cultivated in Minimum Essential Medium (MEM) (Eurobio) supplemented with 2 mM L-Glutamine (Invitrogen), 10% Fetal Bovine Serum (FBS, Eurobio), non-essential aminoacids (Sigma), 1 mM sodium pyruvate (Gibco) and a mixture of penicillin (10000 U/mL) and streptomycin (10 mg/mL). […] CACO2 and T84 cells were seeded in wells at a density of 1.1×10^5 cells/cm^2 and 1.7×10^5 cells/cm^2, respectively, the day before incubation with BCFAs or SCFAs.
as §1, §2

[6] = system: proteins conjugated to SUMO2/3 in T84 cells; assay: Immunoblot of SUMO2/3-conjugated proteins in T84 cells; assay type: cell-based; settings: 5 mM, 1h of incubation
Method: as §3
Before treatments, cell culture medium was replaced by HBSS (Hanks' Balanced Salt Solution; Sigma). Cells were then treated as indicated in the text and directly lysed with Laemmli buffer. […] Viability of cells incubated with HBSS at various pH or with BCFAs was assessed using the CellTiter-Glo® luminescent cell viability assay (Promega), according to the manufacturer's protocol.
Cell lysates and protein extracts from intestinal tissues in Laemmli buffer were boiled for 5 min, sonicated and protein content was resolved using SDS-polyacrylamide gel electrophoresis. Proteins were then transferred on PVDF membranes (GE Healthcare) and detected after incubation with specific antibodies using ECL Clarity Western blotting Substrate (BioRad). […] Quantifications of proteins were performed on a ChemiDoc Imaging System (Bio-rad). […]

CACO2 cells [7] = assay: Intracellular pH (BCECF-AM) in CACO2 cells; assay type: cell-based; settings: 5 mM
deSUMOylases = assay: DeSUMOylase activity assay (SUMO-AMC cleavage) in lysates of treated CACO2 and T84 cells; assay type: cell-based; settings: 5 mM for 5 h, cell lysates
Method: For in vitro cell lines, CACO2 and T84 cells grown in 12-well plates were scraped in 100 μL lysis buffer (Tris HCl pH 8.0 50 mM, EDTA 5 mM, NaCl 200 mM, Glycerol 10%, NP40 0.5%). For in vivo tissues, caecal segments were resuspended in lysis buffer (800 μL for 100 mg of tissues), mechanically lysed using bead beating and further diluted 25 times in lysis buffer. Negative controls were prepared by adding 10 mM N-ethymaleimide (NEM; Sigma-Aldrich) to cell lysates. Recombinant human SUMO1-AMC and SUMO2-AMC proteins (R&D Systems) were diluted in parallel to 500 nM in Assay buffer (Tris HCl pH 8.0 50 mM, Bovine Serum Albumin (BSA) 100 μg/mL, Dithiothreitol (DTT) 10 mM). For each measurement, 10 μL of cell or tissue lysates were mixed with 40 μL of SUMO-AMC containing Assay buffer and fluorescence (λEx=380 nm; λEm=460 nm) was recorded for 30 min at 37° C. on a Flexstation 3 microplate reader (Molecular Devices). DeSUMOylase activities were determined by calculating the initial rate of fluorescence emission in each lysate and by normalizing by the quantity of proteins in the corresponding sample, determined in parallel using BCA assays (Pierce™ BCA Protein Assay Kit).

SAE1/SAE2 or UBC9 = assay: Immunoblot of E1 and E2 SUMO enzyme levels in CACO2 cells; assay type: cell-based
Method: as §2

[8] = system: cullin-1 neddylation in HeLa cells; assay: Cullin-1 neddylation in HeLa cells; assay type: cell-based; settings: 5h of incubation
Method: as §3, §2

IL8 = assay: qRT-PCR of IL8 mRNA in TNFα-stimulated CACO2 cells; assay type: cell-based; settings: 1 hour pre-treatment, then 1 hour 100 ng/mL TNFα
Method: as §1, with “For Transepithelial electrical resistance (TEER) measurements, cells were incubated for 24 h with TNFα.” left out
(§4) Total RNAs were extracted from CACO2 cells using the RNeasy Plus Mini kit (Qiagen) following manufacturer's instructions. […] Specific cDNAs were then quantified by qPCR using Itaq Universal SYBR Green Supermix (BioRad) on a Mastercycler ep Realplex system (Eppendorf, Hamburg, Germany). […]

CCL20 = assay: qRT-PCR of CCL20 mRNA in TNFα-stimulated CACO2 cells; assay type: cell-based; settings: 1 hour pre-treatment, then 1 hour 100 ng/mL TNFα
Method: as §1, with “For Transepithelial electrical resistance (TEER) measurements, cells were incubated for 24 h with TNFα.” left out
as §4

CACO2 cells [9] = assay: Transepithelial electrical resistance (TEER) of differentiated CACO2 monolayers with TNFα; assay type: cell-based; settings: differentiated CACO2 in Transwell, 1 hour pre-treatment, then 24 hours 100 ng/mL TNFα
Method: CACO2 cells were seeded in Transwell inserts and cultivated for 21 days. Monolayer formation and differentiation was monitored by daily evaluation of transepithelial electrical resistance (TEER) measurement, performed with an EVOM epithelial voltohm meter equipped with “chopstick” electrodes. After three weeks, cell culture media were replaced by HBSS. Cells were then preincubated or not with isobutyric or isovaleric acids for 1 hour. 100 ng/mL TNFα was then added to both apical and basolateral compartments. TEER was evaluated after 24h of incubation.

T84 cells = assay: Intracellular pH (BCECF-AM) in T84 cells; settings: 5 mM
Method: CACO2 and T84 cells, grown in 96-well plates were loaded with 2 μM BCECF-AM (2′,7′-Bis-(2-Carboxyethyl)-5-(and-6)-Carboxyfluorescein, Acetoxymethyl Ester; Invitrogen) for 30 min in HBSS at 37° C. […] Cells were then washed twice and incubated in HBSS with or without BCFAs or with HBSS at definite pH. Cell fluorescence (λEmission535 nm) was recorded at two different excitation wavelengths: 440 nm and 490 nm. Comparison of the ratios of fluorescence intensities (490/440 nm) was performed to detect changes in intracellular pH. Calibration solutions (with pH ranging from 4.5 to 7.5) were used as controls (Intracellular pH Calibration Buffer Kit; Molecular Probes).

concentration present as isobutyrate [1] [µM] | concentration present as isobutyric acid [1] [µM] | pH of HBSS medium after addition [1] | proportion present as isobutyrate [1] [%] | proportion present as isobutyric acid [1] [%] | Structure (SMILES) | ROS detection after incubation with sodium salts (basic forms) (CACO2 cells [2]) | TNFα-triggered degradation of IκBα (IκBα) | SUMOylation pattern [5] | also measured
~4990 | ~10 | ~7.5 | ~99.8 | ~0.2 | CC(C)C(=O)[O-].[Na+] [sodium isobutyrate] | no ROS were detected | not observed | – | level of fecal calprotectin (DSS-treated mice [3]): significantly decreases; DSS-induced colonic hyperpermeability (DSS-treated mice [4]): significantly decreases
– | – | – | – | – | CC(=O)N[C@@H](CS)C(=O)O [NAC, N-acetyl cysteine] | – | – | – | effect of ROS scavenger preincubation on BCFAs-induced hyperSUMOylation ([5]; 30 min pre-incubation with 5 mM NAC or 10 μM DPI, then 1h 5 mM isobutyric or isovaleric acid): significantly block
~3500 | ~1500 | ~5.2 | ~72 | ~28 | CC(C)C(=O)O [isobutyric acid] | – | block | – | level of proteins conjugated to SUMO2/3 ([5]; 5 mM, 1h or 5h of incubation): significant increase; hyperSUMOylation (SUMO2/3-conjugated proteins) [6]: hyperSUMOylation is similarly observed; intracellular pH (pHi) (CACO2 cells [7]): significant decrease; ROS production (CACO2 cells [2]; 1h of incubation): induce ROS production; level of ROS (CACO2 cells [2]; 5h of incubation, compared with 1h): less important; initial rate of SUMO deconjugation, SUMO1-AMC substrate (deSUMOylases): significantly decrease; initial rate of SUMO deconjugation, SUMO2-AMC substrate (deSUMOylases): significantly decrease; level of SAE1/SAE2 or UBC9 (SAE1/SAE2 or UBC9): do not alter; cullin-1 neddylation [8]: triggers cullin-1 deneddylation; IL8 mRNA expression in response to TNFα (IL8): downregulate; CCL20 mRNA expression in response to TNFα (CCL20): downregulate; TNFα-induced increase in epithelial permeability (TEER) (CACO2 cells [9]): block; intracellular pH (pHi) (T84 cells): significant decrease
– | – | – | – | – | CCC(=O)[O-].[Na+] [sodium propionate] | – | – | does not trigger any changes | –
– | – | – | – | – | CCCC(=O)[O-].[Na+] [sodium butyrate, reference compound] | no ROS were detected | not observed | does not trigger any changes | –
